Source: patent US20160237398A1, “METHODS OF MICROBIAL PRODUCTION OF EXCRETED PRODUCTS FROM METHANE AND RELATED BACTERIAL STRAINS” (UNIVERSITY OF WASHINGTON THROUGH ITS CENTER FOR …, priority 2013, published 2016)

Legend:
[1] = system: pyruvate kinase (pyk2, MALCv4_3080); test: Effect of effectors on activity of purified recombinant pyruvate kinase; assay type: biochemical, Methylomicrobium alcaliphilum 20Z; details: for Relative activity: control without effector = 100; for stimulation of enzyme activity: in the presence of the RuMP pathway intermediate
Protocol: Methanotrophic pyruvate kinase-purification and characterization.
(§1) Protein purification and characterization. Activities of key enzymes of the central metabolic pathways were measured as described. Pyruvate forming activity in cell-free extracts of M. alcaliphilus 20Z was also measured using Pyruvate Assay Kit (BioVision Inc. CA, USA). Recombinant pyruvate kinase PK-ubiqitin-His6 (“His6” disclosed as SEQ ID NO: 7) was obtained by cloning of the pyk2 gene (MALCv4_3080) in the vector pHUE and expressing in E. coli BL21 (DE3) cells growing in the presence of 0.5 mM IPTG for 5 hours at 37° C. PK-ubiqitin-His6 enzyme (“His6” disclosed as SEQ ID NO: 7) was purified by affinity chromatography on a Ni^2+-NTA column as described earlier.

[2] = molecular target: pyruvate kinase 2 from M. alcaliphilum 20Z (Methylotuvimicrobium alcaliphilum, UniProt G4T2L7); assay type: biochemical, Methylomicrobium alcaliphilum 20Z; details: in the presence of 2.5 mM ribose-5-phosphate; read-out: S0.5 (used in place of Km, non Michaelis-Menten)
Sequence of pyruvate kinase 2 from M. alcaliphilum 20Z (G4T2L7 entry or part of it): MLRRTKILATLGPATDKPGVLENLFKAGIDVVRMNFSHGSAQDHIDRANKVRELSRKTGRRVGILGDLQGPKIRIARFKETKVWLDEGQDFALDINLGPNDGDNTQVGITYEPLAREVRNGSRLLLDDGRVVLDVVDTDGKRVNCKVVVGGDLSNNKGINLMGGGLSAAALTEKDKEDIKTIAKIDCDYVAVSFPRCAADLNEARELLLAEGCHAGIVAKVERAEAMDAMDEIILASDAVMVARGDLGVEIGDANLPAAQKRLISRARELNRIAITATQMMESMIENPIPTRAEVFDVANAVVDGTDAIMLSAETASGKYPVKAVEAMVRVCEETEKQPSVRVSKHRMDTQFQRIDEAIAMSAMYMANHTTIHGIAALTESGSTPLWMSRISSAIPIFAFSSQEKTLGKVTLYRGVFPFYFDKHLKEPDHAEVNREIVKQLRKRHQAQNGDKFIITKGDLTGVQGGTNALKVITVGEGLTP
Protocol: as §1

[3] = system: 20ZER; test: Accumulation of extracellular metabolites by the culture with an inhibitor of the cyt bc complex; assay type: cell-based, Methylomicrobium alcaliphilum; details: 20ZER + antimycin, dO2 ^ 40%
Protocol: Cultivation and growth parameters. M. alcaliphilum 20Z cells were grown using a mineral salts medium in either closed vials (50 ml culture in 250 ml vials, with shaking at 200 rpm) or bioreactor cultures (fed-batch or chemostat; 1 L working volume in a two liter bench top BioFlo™ 110 modular bioreactors, New Brunswick Scientific, Edison, N.J.). Cells were grown at 28-30° C. Optical density of cell cultures was measured on a Beckman DU® 640B spectrophotometer in plastic 1.5 mL cuvettes with a 1 cm path length. Chemostat cultures maintained a steady-state optical density at 600 nm (OD600) of approximately 2.0±0.2. […] Samples of inflow and outflow gases were either collected daily in triplicates for gas analysis or were analyzed immediately every 15 minutes using a SRI 8610C™ Gas Chromatograph connected to a bioreactor unit. The rates of methane consumption and H2 production were determined by incubating cell samples (50 ml, OD600 between 2 and 4) in closed 250 ml vials for 12-60 h at 28° C. […]

Compound: O=C(O)[C@@H](CO)OP(=O)(O)O [2-phosphoglycerate]
- Relative activity ([1]; effector 2 mM): 75%

Compound: Nc1ncnc2c1ncn2[C@@H]1O[C@H](COP(=O)(O)O)[C@@H](O)[C@H]1O [AMP]
- Relative activity ([1]; effector 2 mM): 126%

Compound: Nc1ncnc2c1ncn2[C@@H]1O[C@H](COP(=O)(O)OP(=O)(O)OP(=O)(O)O)[C@@H](O)[C@H]1O [ATP]
- effect on enzyme activity [1]: strongly inhibited
- Relative activity ([1]; effector 0.5 mM): 64%
- Relative activity ([1]; effector 1 mM): 32%
- Relative activity ([1]; effector 2 mM): 12%

Compound: O=C(O)CC(O)(CC(=O)O)C(=O)O [Citrate]
- Relative activity ([1]; effector 1 mM): 140%

Compound: O=C[C@H](O)[C@H](O)COP(=O)(O)O [Erythrose-4-phosphate]
- Relative activity ([1]; effector 5 mM): 740%
- stimulation of enzyme activity [1]: 20 fold

Compound: O=C(COP(=O)(O)O)[C@@H](O)[C@H](O)[C@H](O)COP(=O)(O)O [Fructose-1,6-bisphosphate]
- Relative activity ([1]; effector 5 mM): 158%

Compound: O=C(COP(=O)(O)O)[C@@H](O)[C@H](O)[C@H](O)CO [Fructose-1-phosphate]
- Relative activity ([1]; effector 5 mM): 270%

Compound: O=C(CO)[C@@H](O)[C@H](O)[C@H](O)COP(=O)(O)O [Fructose-6-phosphate]
- inhibitory effect of ATP, PPi and Pi after addition of the activator [1]: completely abolished
- Relative activity ([1]; effector 5 mM): 2518%
- stimulation of enzyme activity [1]: 20 fold

Compound: O=P(O)(O)O[C@H]1O[C@H](CO)[C@@H](O)[C@H](O)[C@H]1O [Glucose-1-phosphate]
- Relative activity ([1]; effector 5 mM): 67%

Compound: O=C[C@H](O)[C@@H](O)[C@H](O)[C@H](O)COP(=O)(O)O [Glucose-6-phosphate]
- Relative activity ([1]; effector 5 mM): 2545%
- stimulation of enzyme activity [1]: 20 fold

Compound: O=C(O)CC(O)C(=O)O (centres unmarked) [Malate]
- Relative activity ([1]; effector 1 mM): 82%

Compound: [Cl-].[Cl-].[Mg+2] [MgCl2]
- Km [2]: 1990 µM

Compound: O=P(O)(O)OP(=O)(O)O [PPi, pyrophosphate]
- effect on enzyme activity [1]: strongly inhibited
- Relative activity ([1]; effector 2 mM): 14%

Compound: O=P(O)(O)O [Pi, inorganic phosphate]
- effect on enzyme activity [1]: strongly inhibited
- Relative activity ([1]; effector 6 mM): 11%

Compound: O=P(O)(O)O[C@H]1O[C@H](CO)[C@@H](O)[C@H]1O [Ribose-1-phosphate]
- Relative activity ([1]; effector 5 mM): 92%

Compound: O=C[C@H](O)[C@H](O)[C@H](O)COP(=O)(O)O [Ribose-5-phosphate]
- inhibitory effect of ATP, PPi and Pi after addition of the activator [1]: completely abolished
- Relative activity ([1]; effector 5 mM): 2092%
- stimulation of enzyme activity [1]: 20 fold

Compound: O=C(CO)[C@H](O)[C@H](O)COP(=O)(O)O [Ribulose-5-phosphate]
- Relative activity ([1]; effector 5 mM): 1890%
- stimulation of enzyme activity [1]: 20 fold

Compound: N[C@@H](CO)C(=O)O [Serine]
- Relative activity ([1]; effector 1 mM): 133%

Compound: antimycin A
- Accumulation of extracellular Acetate [3]: 3955 ± 230 μmol L^−1 g^−1 CDW
- Accumulation of extracellular Lactate [3]: 437 ± 30 μmol L^−1 g^−1 CDW
